Data from patent US7579474B2, “Substituted piperidines as modulators of dopamine neurotransmission” (NSAB, Filial AF Neurosearch AB, Sverige, priority 2004, dated 2009).

Test system: Locomotor activity in drug-naive rats
Assay: Locomotor activity in drug-naive rats
Conditions: for Locomotor activity 0-60 min: drug-naive rats, recorded for 60 minutes; for Locomotor activity 30-60 min: drug-naive habituated rats, recorded between 30 and 60 minutes

COCCN1CCC(O)(c2ccc(Cl)c(C(F)(F)F)c2)CC1 [drawing 36]
Locomotor activity 0-60 min (11 μmol/kg): 7945 ± 1230 counts/60 min ± SEM | Locomotor activity 0-60 min (33 μmol/kg): 5041 ± 2022 counts/60 min ± SEM | Locomotor activity 0-60 min (100 μmol/kg): 4493 ± 1081 counts/60 min ± SEM

CCN1CCC(O)(c2cccc(C(F)(F)F)c2F)CC1 [drawing 32]
Locomotor activity 0-60 min (11 μmol/kg): 7481 ± 1266 counts/60 min ± SEM | Locomotor activity 0-60 min (33 μmol/kg): 11085 ± 2020 counts/60 min ± SEM | Locomotor activity 0-60 min (100 μmol/kg): 11288 ± 1339 counts/60 min ± SEM

CCCCN1CCC(O)(c2ccc(C)c(C(F)(F)F)c2)CC1 [drawing 41]
Locomotor activity 30-60 min (11 μmol/kg): 2092 ± 1437 counts/30 min ± SEM | Locomotor activity 30-60 min (33 μmol/kg): 1337 ± 141 counts/30 min ± SEM | Locomotor activity 30-60 min (100 μmol/kg): 1365 ± 460 counts/30 min ± SEM

CCCN1CCC(O)(c2ccc(F)c(C(F)(F)F)c2)CC1 [drawing 43]
Locomotor activity 30-60 min (11 μmol/kg): 213 ± 180 counts/30 min ± SEM | Locomotor activity 30-60 min (33 μmol/kg): 436 ± 246 counts/30 min ± SEM | Locomotor activity 30-60 min (100 μmol/kg): 258 ± 134 counts/30 min ± SEM

COCCN1CCC(O)(c2cccc(Cl)c2Cl)CC1
Locomotor activity 0-60 min (11 μmol/kg): 7229 ± 769 counts/60 min ± SEM | Locomotor activity 0-60 min (33 μmol/kg): 7669 ± 1029 counts/60 min ± SEM | Locomotor activity 0-60 min (100 μmol/kg): 7542 ± 844 counts/60 min ± SEM

CCCCN1CCC(O)(c2ccc(C)c(C(F)(F)F)c2)CC1 [drawing 34]
Locomotor activity 0-60 min (11 μmol/kg): 8188 ± 1055 counts/60 min ± SEM | Locomotor activity 0-60 min (33 μmol/kg): 2879 ± 503 counts/60 min ± SEM | Locomotor activity 0-60 min (100 μmol/kg): 2961 ± 928 counts/60 min ± SEM

CCCN1CCC(O)(c2ccc(F)c(C(F)(F)F)c2)CC1 [drawing 40]
Locomotor activity 0-60 min (11 μmol/kg): 6114 ± 1032 counts/60 min ± SEM | Locomotor activity 0-60 min (33 μmol/kg): 5906 ± 1340 counts/60 min ± SEM | Locomotor activity 0-60 min (100 μmol/kg): 5546 ± 441 counts/60 min ± SEM

CCCN1CCC(O)(c2cccc(C(F)(F)F)c2F)CC1 [drawing 37]
Locomotor activity 0-60 min (11 μmol/kg): 11764 ± 3106 counts/60 min ± SEM | Locomotor activity 0-60 min (33 μmol/kg): 7506 ± 905 counts/60 min ± SEM | Locomotor activity 0-60 min (100 μmol/kg): 3698 ± 294 counts/60 min ± SEM

CCCN1CCC(O)(c2cccc(Cl)c2Cl)CC1 [drawing 35]
Locomotor activity 0-60 min (11 μmol/kg): 8897 ± 801 counts/60 min ± SEM | Locomotor activity 0-60 min (33 μmol/kg): 9739 ± 2025 counts/60 min ± SEM | Locomotor activity 0-60 min (100 μmol/kg): 7499 ± 1620 counts/60 min ± SEM

COCCN1CCC(O)(c2cccc(C(F)(F)F)c2F)CC1 [drawing 38]
Locomotor activity 0-60 min (11 μmol/kg): 6422 ± 1190 counts/60 min ± SEM | Locomotor activity 0-60 min (33 μmol/kg): 6016 ± 1708 counts/60 min ± SEM | Locomotor activity 0-60 min (100 μmol/kg): 4296 ± 847 counts/60 min ± SEM

CCCCN1CCC(O)(c2cccc(C(F)(F)F)c2F)CC1 [drawing 39]
Locomotor activity 0-60 min (11 μmol/kg): 7668 ± 1716 counts/60 min ± SEM | Locomotor activity 0-60 min (33 μmol/kg): 3213 ± 825 counts/60 min ± SEM | Locomotor activity 0-60 min (100 μmol/kg): 1630 ± 302 counts/60 min ± SEM

CCCN1CCC(O)(c2cccc(C(F)(F)F)c2F)CC1 [drawing 42]
Locomotor activity 30-60 min (11 μmol/kg): 3200 ± 1817 counts/30 min ± SEM | Locomotor activity 30-60 min (33 μmol/kg): 1130 ± 344 (P = 0.06) counts/30 min ± SEM | Locomotor activity 30-60 min (100 μmol/kg): 541 ± 145 counts/30 min ± SEM
